Measured values from patent US20200179310A1, “COMPOSITIONS COMPRISING SALBUTAMOL SULPHATE” (MEXICHEM AMANCO HOLDING S.A. DE C.V., priority 2013, published 2020).

Test: Solubility of surfactants in liquid propellant (non-volatile residue of saturated supernatant)
Type: physicochemical
Settings: for NVR result (quantity of dissolved surfactant in the propellant): equilibrated at 20° C., excess surfactant in 200 g liquid propellant
Description: The solubility of various surfactants in R-134a and R-152a was investigated. The solubility was investigated by adding an excess of the surfactant (around 2 grams) to 200 g of the liquid propellant in a pressurised vessel. The vessel was equilibrated at 20° C. for a period of a few hours before decanting a weighed sample of the saturated supernatant liquid propellant through a filter into a clean vessel. The propellant was slowly removed by evaporation and the residue taken up in a small quantity of dichloromethane. The dichloromethane containing the dissolved residue was transferred to a weighed platinum crucible and heated (up to around 100° C.) to remove the solvent. The weighed, solvent-free residue represented the quantity of dissolved surfactant in the propellant.

NVR result (quantity of dissolved surfactant in the propellant) (Refrigerant 134a (R-134a)): 0.07%
Observation (Refrigerant 152a (R-152a), 20° C.): Sunk to the bottom
NVR result (quantity of dissolved surfactant in the propellant) (Refrigerant 152a (R-152a)): 0.22%
Solubility in R-152a in comparison with R134a (comparison of Table 1 values): significant increases in solubility
Substance: Span 80
